Laboratory results reported in US8017350B2, “Glimepiride- and insulin-induced glycosylphosphatidylinositol-specific phospholipase C regulation” (Sanofi-Aventis Deutschland GmbH, priority 2004, dated 2011).
Entries after “also recorded” stand apart in the source; their conditions may differ.

Assays:
[1] = target: T1, Lipoprotein lipase (LPL) from bovine milk (Bos taurus, UniProt P11151); test: lipoprotein lipase assay (radiolabeled triolein emulsion); assay type: biochemical; conditions: 50 μM
T1 construct: purchased SigmalAldrich (Deisenhofen, Germany); host or cells: bovine milk
T1 sequence (P11151 29-478): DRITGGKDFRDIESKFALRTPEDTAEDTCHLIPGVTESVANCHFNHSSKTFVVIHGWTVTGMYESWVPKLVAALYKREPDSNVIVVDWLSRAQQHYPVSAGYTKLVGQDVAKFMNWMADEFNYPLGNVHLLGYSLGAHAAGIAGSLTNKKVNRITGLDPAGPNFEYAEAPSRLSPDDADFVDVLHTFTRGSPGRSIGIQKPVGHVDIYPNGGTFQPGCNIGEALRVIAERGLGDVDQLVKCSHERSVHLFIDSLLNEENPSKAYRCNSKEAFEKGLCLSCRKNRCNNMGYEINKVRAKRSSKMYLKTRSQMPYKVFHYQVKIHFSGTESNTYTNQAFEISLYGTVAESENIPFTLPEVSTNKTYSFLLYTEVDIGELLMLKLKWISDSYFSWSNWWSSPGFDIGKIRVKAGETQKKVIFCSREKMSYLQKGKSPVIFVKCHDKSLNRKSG
Method: Hormone-sensitive lipase (HSL) and lipoprotein lipase (LPL) were measured using a radiolabeled triolein droplet emulsion as described in “Vertesy et al., (2002) Journal Antibiotics 55:480-494”. Pancreatic lipase (PL) was determined by incubation of 0.25 mmol tributyrin in 2 ml of 5 mM Tris/HCl (pH 6.5), 6 mM sodium taurodeoxycholate, 150 mM NaCl, 1 mM CaCl2 with porcine PL and colipase in the same buffer using a recording pH stat (stirring at 1000 rpm at 25° C.) with the pH adjusted to 6.5. PC-PLC was assayed by incubation of 0.2 ml of 10 mM dipalmitoyllecithin, 0.1 ml of 10 mM SDC and 0.1 ml of 0.03 M CaCl2 with bacterial PC-PLC (in 50 mM Tris/HCl, pH 7.5, 0.1% BSA) for 10 min at 37° C. The reaction was terminated by addition of 0.1 ml of 50% TCA and subsequently of 2.5 ml of […]. After centrifugation (1500×g, 15 min), 0.2-ml portions of the upper methanol/water phase (˜1.33 ml) were removed, supplemented with 0.5 ml of 60% HClO4, then heated at 170° C. for 1 h and finally analyzed for inorganic phosphate. Mammalian PI-PLC was measured by incubation of 0.1 ml of 10 mM PI, 0.1 ml of 0.8% sodium deoxycholate, 0.1% BSA, 0.2 ml of 100 mM sodium borate (pH 7.5) and rat liver PI-PLC for 20 min at 37° C. The reaction was terminated and further processed as described for the PC-PLC. […] Radioactive phosphatidic acid was detected by phosphorimaging. […]

[2] = tested on: pp59Lyn and Gce1 interaction with caveolin-1 in rat adipocytes; test: dissociation of signaling proteins from caveolin (caveolin-1 immunoprecipitates of hcDIGs); assay type: cell-based; conditions: 50 μM
Method: Solubilized DIGs (see above, 5-20 μg protein) were precleared by incubation with protein A/G-Sepharose and subsequent centrifugation (10,000×g, 5 min). The supernatant was incubated with anti-caveolin-1 antibodies (1:1000) preadsorbed on protein A/G-Sepharose in 1 ml of 10 mM Tris/HCl (pH 7.4), 150 mM NaCl, 1% TX-100 for 1 h at 4° C. The immune complexes were washed twice with the same buffer and then twice with buffer lacking TX-100 and finally subjected to SDS-PAGE performed in the absence of β-mercaptoethanol. The recovery of immunoprecipitated caveolin was normalized by homologous immunoblotting with anti-caveolin antibodies of the same blot following stripping of the membrane.
Polypeptides separated by SDS-PAGE were transferred to polyvinylidene difluoride membranes using the semidry procedure as described in “Müller, G. et al., (2001) Mol. Cell. Biol. 21: 4553-4567”. Washed membranes were incubated with anti-caveolin-1 (1:2000), anti-pp59^Lyn (1:1250), anti-aP (1:500), anti-5′-Nuc (1:750) and anti-IRS-1 (1:2000) antibodies for 4 h at 15° C. Washed membranes were incubated with horseradish peroxidase-coupled secondary goat anti-mouse (1:2000) or goat anti-rabbit IgG (1:4000) antibodies. Labeled proteins were visualized by enhanced chemiluminescence.
FIG. 6: Effect of GPI-2350 on the glimepiride/insulin-induced dissociation of signaling proteins from caveolin. Isolated rat adipocytes were treated (5 min, 37° C.) without or with GPI-2350 (left panels, 50 μM; right panels, increasing conc.) and then incubated (120 min, 37° C.) in the absence or presence of insulin (10 nM) or glimepiride (20 μM). hcDIGs were prepared from the adipocytes and then solubilized. Caveolin-1 immunoprecipitates prepared from the solubilized hcDIGs were assayed for the presence of pp59^Lyn and Gce1 by immunoblotting and photoaffinity-labeling, respectively. […]

CCCCCCCCCCCCP1(=O)O[C@@H]2[C@H](O)[C@@H](O)[C@H](O)[C@@H](O)[C@@H]2O1 (some centres unmarked) [GPI-2350, myo-inositol-1,2-cyclo-dodecylphosphonic acid]
effect on LPL [1]: not significantly affected
effect on insulin-/glimepiride-induced dissociation of pp59Lyn and Gce1 from caveolin [2]: completely abrogated; also recorded: almost complete blockade
